Measurements taken from ChEMBL document CHEMBL1201862, “PubChem BioAssay data set” (2004).
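96-well plates; 48 h exposure; 5 concentrations. Endpoints by linear interpolation between flanking doses. Not reached: highest tested concentration assigned. GI50: concentration for 50% inhibition of growth.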 The source made the active and inactive calls. Rule as the data show it: active = GI50 up to about 1.1 µM and inactive = higher.

How the values were obtained:
Assay in all cases: growth of human tumour cells (NCI), 48 h
[1] = system: UACC-62
[2] = system: SW-620
[3] = system: 786-0
[4] = system: SK-MEL-2
[5] = system: CAKI-1
[6] = system: IGROV-1
[7] = system: NCI-H226
[8] = system: TK-10
[9] = system: SF-268
[10] = system: DU-145
[11] = system: A498
[12] = system: HCC 2998
[13] = system: OVCAR-4
[14] = system: UO-31
[15] = system: A549
[16] = system: COLO 205
[17] = system: RPMI-8226
[18] = system: NCI-H23
[19] = system: OVCAR-8
[20] = system: OVCAR-5
[21] = system: BT-549
[22] = system: KM12
[23] = system: HOP-62
[24] = system: SNB-19
[25] = system: HCT-15
[26] = system: SK-MEL-5
[27] = system: MDA-MB-435
[28] = system: HCT-116
[29] = system: UACC-257
[30] = system: K562
[31] = system: NCI/ADR-RES
[32] = system: SF-295
[33] = system: T47D
[34] = system: HT-29
[35] = system: ACHN
[36] = system: SK-OV-3
[37] = system: MCF7
[38] = system: Malme-3M
[39] = system: EKVX
[40] = system: MDA-MB-231
[41] = system: NCI-H460
[42] = system: U-251
[43] = system: OVCAR-3
[44] = system: SF-539
[45] = system: PC-3
[46] = system: LOX IMVI
[47] = system: SR
[48] = system: M14
[49] = system: SK-MEL-28
[50] = system: SNB-75
[51] = system: HOP-92
[52] = system: RXF 393
[53] = system: NCI-H522
[54] = system: MOLT-4
[55] = system: SN12C
[56] = system: Hs-578T
[57] = system: HL-60
[58] = system: CCRF-CEM

CC/C(=C/OC)P1(=O)OC(C)(C)CN1C(C)(C)C (stereo not given)
GI50 [1]: > 100 µM (inactive) | GI50 [2]: > 100 µM (inactive) | GI50 [3]: > 100 µM (inactive) | GI50 [4]: > 100 µM (inactive) | GI50 [5]: > 100 µM (inactive) | GI50 [6]: > 100 µM (inactive) | GI50 [7]: > 100 µM (inactive) | GI50 [8]: > 100 µM (inactive) | GI50 [9]: > 100 µM (inactive) | GI50 [10]: > 100 µM (inactive) | GI50 [11]: > 100 µM (inactive) | GI50 [12]: > 100 µM (inactive) | GI50 [13]: > 100 µM (inactive) | GI50 [14]: > 100 µM (inactive) | GI50 [15]: > 100 µM (inactive) | GI50 [16]: > 100 µM (inactive) | GI50 [17]: > 100 µM (inactive) | GI50 [18]: > 100 µM (inactive) | GI50 [19]: > 100 µM (inactive) | GI50 [20]: > 100 µM (inactive) | GI50 [21]: > 100 µM (inactive) | GI50 [22]: > 100 µM (inactive) | GI50 [23]: > 100 µM (inactive) | GI50 [24]: > 100 µM (inactive) | GI50 [25]: > 100 µM | GI50 [26]: > 100 µM (inactive) | GI50 [27]: > 100 µM (inactive) | GI50 [28]: > 100 µM (inactive) | GI50 [29]: > 100 µM (inactive) | GI50 [30]: > 100 µM (inactive) | GI50 [31]: > 100 µM (inactive) | GI50 [32]: > 100 µM (inactive) | GI50 [33]: > 100 µM (inactive) | GI50 [34]: > 100 µM (inactive) | GI50 [35]: > 100 µM (inactive) | GI50 [36]: > 100 µM (inactive) | GI50 [37]: > 100 µM (inactive) | GI50 [38]: > 100 µM (inactive) | GI50 [39]: > 100 µM (inactive) | GI50 [40]: > 100 µM (inactive) | GI50 [41]: > 100 µM (inactive) | GI50 [42]: > 100 µM (inactive) | GI50 [43]: > 100 µM (inactive) | GI50 [44]: > 100 µM (inactive) | GI50 [45]: > 100 µM (inactive) | GI50 [46]: > 100 µM (inactive) | GI50 [47]: > 100 µM (inactive) | GI50 [48]: > 100 µM (inactive)

Cc1cc2nc3c(C#N)c4c(c(Cl)n3c2cc1C)CCC4
GI50 [49]: 29.2 µM (inactive) | GI50 [2]: 19.6 µM (inactive) | GI50 [3]: 16 µM (inactive) | GI50 [50]: > 100 µM (inactive) | GI50 [5]: 18.5 µM (inactive) | GI50 [7]: 74.1 µM (inactive) | GI50 [51]: 31.8 µM (inactive) | GI50 [8]: 24.7 µM (inactive) | GI50 [9]: 23.9 µM (inactive) | GI50 [11]: > 100 µM (inactive) | GI50 [13]: 43 µM (inactive) | GI50 [16]: 65.8 µM (inactive) | GI50 [52]: 16.6 µM (inactive) | GI50 [53]: 17.4 µM (inactive) | GI50 [17]: 16 µM (inactive) | GI50 [18]: 24.1 µM (inactive) | GI50 [19]: 20.2 µM (inactive) | GI50 [20]: 25.1 µM (inactive) | GI50 [21]: 22.5 µM (inactive) | GI50 [22]: 38.5 µM (inactive) | GI50 [23]: > 100 µM (inactive) | GI50 [54]: 26 µM (inactive) | GI50 [25]: 17.6 µM | GI50 [26]: 21.9 µM (inactive) | GI50 [27]: 19.3 µM (inactive) | GI50 [28]: 16.1 µM (inactive) | GI50 [29]: 36.7 µM (inactive) | GI50 [31]: 18.3 µM (inactive) | GI50 [32]: > 100 µM (inactive) | GI50 [33]: 40.7 µM (inactive) | GI50 [35]: 24.6 µM (inactive) | GI50 [36]: > 100 µM (inactive) | GI50 [38]: 52.8 µM (inactive) | GI50 [55]: 18.6 µM (inactive) | GI50 [39]: 61.1 µM (inactive) | GI50 [40]: 15.9 µM (inactive) | GI50 [41]: 37.6 µM (inactive) | GI50 [42]: 15.1 µM (inactive) | GI50 [43]: 21.3 µM (inactive) | GI50 [44]: 25.3 µM (inactive) | GI50 [46]: 18.1 µM (inactive)

CC(C)(C)c1ccc2c(c1)CNCCNCCNCc1cc(C(C)(C)C)ccc1OCC1(CO2)COc2ccc(C(C)(C)C)cc2CNCCNCCNCc2cc(C(C)(C)C)ccc2OC1
GI50 [1]: 1.68 µM (inactive) | GI50 [49]: 10 µM (inactive) | GI50 [2]: 0.303 µM (active) | GI50 [4]: 0.914 µM (active) | GI50 [5]: 1.72 µM (inactive) | GI50 [6]: 0.418 µM (active) | GI50 [7]: 0.718 µM (active) | GI50 [8]: 1.55 µM (inactive) | GI50 [9]: 1.37 µM (inactive) | GI50 [10]: 1.49 µM (inactive) | GI50 [12]: 0.339 µM (active) | GI50 [13]: 1.58 µM (inactive) | GI50 [14]: 1.72 µM (inactive) | GI50 [52]: 2.05 µM (inactive) | GI50 [53]: 0.186 µM (active) | GI50 [18]: 1.52 µM (inactive) | GI50 [19]: 1.76 µM (inactive) | GI50 [20]: 1.72 µM (inactive) | GI50 [21]: 1.5 µM (inactive) | GI50 [56]: 1.44 µM (inactive) | GI50 [22]: 0.243 µM (active) | GI50 [23]: 1.87 µM (inactive) | GI50 [25]: 1.51 µM | GI50 [29]: 1.69 µM (inactive) | GI50 [31]: 2.17 µM (inactive) | GI50 [35]: 1.51 µM (inactive) | GI50 [36]: 1.53 µM (inactive) | GI50 [37]: 0.183 µM (active) | GI50 [38]: 1.94 µM (inactive) | GI50 [39]: 0.611 µM (active) | GI50 [40]: 1.41 µM (inactive) | GI50 [41]: 0.24 µM (active) | GI50 [43]: 1.33 µM (inactive) | GI50 [44]: 0.375 µM (active) | GI50 [45]: 0.382 µM (active) | GI50 [48]: 0.526 µM (active)

COc1cc(C2NCCC(c3ccccc3)(c3ccccc3)N2)cc(OC)c1OC (stereo not given)
GI50 [1]: 25.2 µM (inactive) | GI50 [49]: 17 µM (inactive) | GI50 [2]: 19 µM (inactive) | GI50 [3]: 22.6 µM (inactive) | GI50 [50]: 41.7 µM (inactive) | GI50 [6]: 27.2 µM (inactive) | GI50 [7]: 12.7 µM (inactive) | GI50 [51]: 3.52 µM (inactive) | GI50 [57]: 5.83 µM (inactive) | GI50 [8]: 9.31 µM (inactive) | GI50 [9]: 52.4 µM (inactive) | GI50 [10]: 97.3 µM (inactive) | GI50 [11]: 18.7 µM (inactive) | GI50 [12]: 20.7 µM (inactive) | GI50 [13]: 81.1 µM (inactive) | GI50 [14]: 12.2 µM (inactive) | GI50 [15]: 32.4 µM (inactive) | GI50 [16]: 16.1 µM (inactive) | GI50 [52]: 42.7 µM (inactive) | GI50 [17]: 7.36 µM (inactive) | GI50 [18]: 23.4 µM (inactive) | GI50 [19]: 60.4 µM (inactive) | GI50 [56]: 26.1 µM (inactive) | GI50 [22]: 12.6 µM (inactive) | GI50 [23]: 34 µM (inactive) | GI50 [54]: > 10 µM (inactive) | GI50 [24]: 55.7 µM (inactive) | GI50 [25]: 38.5 µM | GI50 [26]: 17.3 µM (inactive) | GI50 [27]: 18.5 µM (inactive) | GI50 [28]: 4.43 µM (inactive) | GI50 [29]: 18.2 µM (inactive) | GI50 [31]: > 100 µM (inactive) | GI50 [32]: 7.1 µM (inactive) | GI50 [33]: 58.2 µM (inactive) | GI50 [34]: 4.66 µM (inactive) | GI50 [35]: 61.2 µM (inactive) | GI50 [36]: 78 µM (inactive) | GI50 [37]: 20.1 µM (inactive) | GI50 [38]: 19.1 µM (inactive) | GI50 [55]: 59.3 µM (inactive) | GI50 [39]: > 100 µM (inactive) | GI50 [40]: 68.9 µM (inactive) | GI50 [41]: 9.59 µM (inactive) | GI50 [42]: 32.9 µM (inactive) | GI50 [44]: 11.3 µM (inactive) | GI50 [46]: 13.5 µM (inactive) | GI50 [47]: 26.4 µM (inactive) | GI50 [48]: 11.7 µM (inactive) | GI50 [58]: 39.3 µM (inactive)
